Patent US20190002942A1, “ANTIBIOTIC FIIRV 104/18 COMPLEX AND THE ISOLATED INDIVIDUAL FACTORS THEREOF” (Fondazione Istituto Insubrico di Ricerca per la Vita, priority 2015, published 2019)
Values after ≈ are worked out from the molar mass of the structure shown. Where two headings read alike, the source gives them in different places.

Legend:
L145 C. albicans = experiment: MIC, broth microdilution (CLSI); type: cell-based, Candida albicans; details: L145 C. albicans, RPMI, inoculum 10^4 CFU/mL
Experimental: (§1) Antimicrobial activity of the antibiotic FIIRV 104/18 complex is determined by the broth microdilution method according to the procedures published by the Clinical and Laboratory Standards Institute (CLSI), formerly the National Committee for Clinical Laboratory Standards (NCCLS) (document M07-A9). Inocula are: 2-5×10^5 CFU/mL for Gram positive and Gram negative bacteria; 10^4 CFU/mL for Candida albicans.
(§2) The media used are: cation adjusted Mueller Hinton broth (CAMHB) for Staphylococci, Enterococci, Moraxella catarrhalis, Escherichia coli; Todd Hewitt broth (THB) for Streptococci; RPMI 1640 Medium for C. albicans. The effect of 30% bovine serum is determined under the same experimental conditions.
(§3) Cultures are incubated at 35° C. in air. After 18-24 hours visual readings are performed and MICs determined. The MIC (Minimal Inhibitory Concentration) is defined as the lower concentration of antibiotic at which there is no visible growth. The strains used are clinical isolates or strains from American Type Culture Collection (ATCC). Individual factors of antibiotic FIIRV 104/18 are dissolved in DMSO to obtain a 1000 μg/mL stock solution, and subsequently diluted in water to obtain working solution.

[1] = system: L819 S. aureus Smith ATCC19636; experiment: MIC, broth microdilution (CLSI); type: cell-based, Staphylococcus aureus; details: Staphylococcus aureus, read-out: MIC
Experimental: (§4) Inocula are: 2-5×10^5 CFU/mL for Gram positive and Gram negative bacteria; 10^4 CFU/mL for Candida albicans.
(§5) The effect of 30% bovine serum is determined under the same experimental conditions.
(§6) Cultures are incubated at 35° C. in air. After 18-24 hours visual readings are performed and MICs determined. The MIC (Minimal Inhibitory Concentration) is defined as the lower concentration of antibiotic at which there is no visible growth. The strains used are clinical isolates or strains from American Type Culture Collection (ATCC).

L100 S. aureus ATCC 6538 = experiment: MIC, broth microdilution (CLSI); type: cell-based; details: Staphylococcus aureus, ATCC6538; L100 S. aureus ATCC 6538; CAMHB; read-out: MIC
Experimental: as §4, §5, §6

L1400 S. aureus MRSA = experiment: MIC, broth microdilution (CLSI); type: cell-based; details: Staphylococcus aureus; L1400 S. aureus MRSA; CAMHB; read-out: MIC
Experimental: as §4, §5, §6

L1577 S. epidermidis = experiment: MIC, broth microdilution (CLSI); type: cell-based; details: Staphylococcus epidermidis; L1577 S. epidermidis; CAMHB; read-out: MIC
Experimental: as §4, §5, §6

[2] = system: L1729 S. haemolyticus MDR; experiment: MIC, broth microdilution (CLSI); type: cell-based; details: Staphylococcus haemolyticus; L1729 S. haemolyticus MDR; CAMHB; read-out: MIC
Experimental: as §4, §5, §6

L1730 S. haemolyticus = experiment: MIC, broth microdilution (CLSI); type: cell-based; details: Staphylococcus haemolyticus; L1730 S. haemolyticus; CAMHB; read-out: MIC
Experimental: as §4, §5, §6

L3030 A. baumannii = experiment: MIC, broth microdilution (CLSI); type: cell-based; details: Acinetobacter baumannii; L3030 A. baumannii; read-out: MIC
Experimental: as §4, §5, §6

L3294 M. catarrhalis = experiment: MIC, broth microdilution (CLSI); type: cell-based; details: Moraxella catarrhalis; L3294 M. catarrhalis; CAMHB; read-out: MIC
Experimental: as §4, §5, §6

L44 S. pneumoniae = experiment: MIC, broth microdilution (CLSI); type: cell-based; details: Streptococcus pneumoniae; L44 S. pneumoniae; THB; read-out: MIC
Experimental: as §4, §5, §6

L47 E. coli, SKF 12140 = experiment: MIC, broth microdilution (CLSI); type: cell-based; details: Escherichia coli; L47 E. coli, SKF 12140; CAMHB; read-out: MIC
Experimental: as §4, §5, §6

L49 S. pyogenes C203 = experiment: MIC, broth microdilution (CLSI); type: cell-based; details: Streptococcus pyogenes; L49 S. pyogenes C203; THB; read-out: MIC
Experimental: as §4, §5, §6

L559 E. faecalis = experiment: MIC, broth microdilution (CLSI); type: cell-based; details: Enterococcus faecalis; L559 E. faecalis; CAMHB; read-out: MIC
Experimental: as §4, §5, §6

L568 E. faecium = experiment: MIC, broth microdilution (CLSI); type: cell-based; details: Enterococcus faecium; L568 E. faecium; CAMHB; read-out: MIC
Experimental: as §4, §5, §6

L569 E. faecium VanA = experiment: MIC, broth microdilution (CLSI); type: cell-based, Enterococcus faecium; details: Enterococcus faecium, L569 E. faecium VanA, read-out: MIC
Experimental: as §4, §5, §6

L560 E. faecalis VanA = experiment: MIC, broth microdilution (CLSI); type: cell-based, Enterococcus faecalis; details: Enterococcus faecalis, L560 E. faecalis VanA, read-out: MIC
Experimental: as §4, §5, §6

L2048 B. cenocepacia = experiment: MIC, broth microdilution (CLSI); type: cell-based; details: Burkholderia cenocepacia; L2048 B. cenocepacia; read-out: MIC
Experimental: as §1, §2, §3

[3] = system: Gram-positive susceptible, resistant and multi-resistant pathogenic bacteria; experiment: Growth inhibition of Gram-positive bacteria (summary); type: cell-based; details: Gram positive bacteria: Staphylococci incl. MRSA and MR coagulase-negative, Streptococci, Enterococci incl. VanA
Experimental: as §1, §2, §3

HeLa cells = experiment: Inhibition of replication of HeLa cells; type: cell-based
[4] = ATCC19636, L819 S. aureus Smith ATCC19636, CAMHB
[5] = ATCC19636, L819 S. aureus Smith, +30% SB (bovine serum)
[6] = Candida albicans, read-out: MIC

SMILES | MIC [1, 4] | MIC [1, 5] | MIC (L100 S. aureus ATCC 6538) | MIC (L1400 S. aureus MRSA) | MIC (L1577 S. epidermidis) | MIC [2] | MIC (L1730 S. haemolyticus) | MIC (L3030 A. baumannii) | MIC (L3294 M. catarrhalis) | MIC (L44 S. pneumoniae) | MIC (L47 E. coli, SKF 12140) | MIC (L49 S. pyogenes C203) | MIC (L559 E. faecalis) | MIC (L568 E. faecium) | MIC (L569 E. faecium VanA; +30% SB (bovine serum)) | MIC (L569 E. faecium VanA; CAMHB) | MIC (L560 E. faecalis VanA; +30% SB (bovine serum)) | MIC (L560 E. faecalis VanA; CAMHB) | MIC (L2048 B. cenocepacia) | MIC (L145 C. albicans; [6]) | other results
C[C@@H]1[C@H](O)[C@@H](C)/C=C/C=C/C=C/C=C/C=C/C=C/C=C/[C@H](O[C@@H]2O[C@H](C)[C@@H](O)[C@H](N)[C@@H]2O)C[C@@H]2O[C@](O)(C[C@@H](O)C[C@@H](O)[C@H](O)CC[C@@H](O)C[C@@H](O)CC(=O)O[C@H]1C)C[C@H](O)[C@H]2C(=O)O [AmB, Amphotericin B, reference compound] |  |  |  |  |  |  |  |  |  |  |  |  |  |  |  |  |  |  |  |  | MIC (L145 C. albicans): 1 µg/mL (≈ 1.08 µM)
COC(=O)c1c(C)cc2c(c1O)[C@]1(O)C(=O)c3cc4c(c(O)c3C(=O)[C@]1(OC)[C@H](O)C2)C(=O)C=C(NC1O[C@@H](C)[C@H](O)[C@@H](O)[C@H]1OC)C4=O (stereo partly drawn) [F683, 6R,6aS,14aR-methyl-11,6,8,14a-tetrahydroxy-11[(2S,3R,4R,5R,6S)-4,5-dihydroxy-3-methoxy-6-methyltetrahydro-2H-pyran-2-ylamino]-6a-methoxy-3-methyl-7,9,12,14-tetraoxo-5,6,6a,7,9,12,14,14a-octahydrobenzo[α]tetracene-2-carboxylate] | 0.5 µg/mL (≈ 0.731 µM) | 8 µg/mL (≈ 11.7 µM) | 2 µg/mL (≈ 2.93 µM) | 0.5 µg/mL (≈ 0.731 µM) | 0.5 µg/mL (≈ 0.731 µM) | 0.5 µg/mL (≈ 0.731 µM) | 0.5 µg/mL (≈ 0.731 µM) | > 128 µg/mL | 0.5 µg/mL (≈ 0.731 µM) | 0.125 µg/mL (≈ 0.183 µM) | > 128 µg/mL | 0.125 µg/mL (≈ 0.183 µM) | 8 µg/mL (≈ 11.7 µM) | 16 µg/mL (≈ 23.4 µM) | > 32 µg/mL | 16 µg/mL (≈ 23.4 µM) | 32 µg/mL (≈ 46.8 µM) | 8 µg/mL (≈ 11.7 µM) | > 128 µg/mL | > 128 µg/mL | antibacterial activity (in words) [3]: very high antibacterial activity
COC(=O)c1c(C)cc2c(c1O)[C@]1(O)C(=O)c3cc4c(c(O)c3C(=O)[C@]1(OC)[C@H](O)C2)C(=O)C=C(NC1O[C@@H](C)[C@H](OC2CC[C@H](O)C(C)O2)[C@@H](O)[C@H]1OC)C4=O (stereo partly drawn) [F797, (6R,6aS,14aR)-methyl 11-[(2S,3R,4R,5R,6S)-4-hydroxy-5-{[(2R,5S,6S)-5-hydroxy-6-methyltetrahydro-2H-pyran-2-yl]oxy}-3-methoxy-6-methyltetrahydro-2H-pyran-2-ylamino]-1,6,8,14a-tetrahydroxy-6a-methoxy-3-methyl-7,9,12,14-tetraoxo-5,6,6a,7,9,12,14,14a-octahydrobenzo[α]tetracene-2-carboxylate] | 0.002 µg/mL (≈ 0.00251 µM) | 0.125 µg/mL (≈ 0.157 µM) | 0.008 µg/mL (≈ 0.01 µM) | 0.015 µg/mL (≈ 0.0188 µM) | 0.015 µg/mL (≈ 0.0188 µM) | 0.015 µg/mL (≈ 0.0188 µM) | 0.015 µg/mL (≈ 0.0188 µM) | 16 µg/mL (≈ 20.1 µM) | 0.06 µg/mL (≈ 0.0752 µM) | 0.004 µg/mL (≈ 0.00501 µM) | 64 µg/mL (≈ 80.2 µM) | 0.002 µg/mL (≈ 0.00251 µM) | 0.25 µg/mL (≈ 0.313 µM) | 0.5 µg/mL (≈ 0.627 µM) | 2 µg/mL (≈ 2.51 µM) | 0.5 µg/mL (≈ 0.627 µM) | 0.5 µg/mL (≈ 0.627 µM) | 0.125 µg/mL (≈ 0.157 µM) | 16 µg/mL (≈ 20.1 µM) | > 128 µg/mL | antibacterial activity (in words) [3]: very high antibacterial activity; cytotoxicity (in words) (HeLa cells; HeLa cells): moderate cytotoxicity; IC50 (HeLa cells; Homo sapiens, HeLa): 5 µg/mL (≈ 6.27 µM)
